Laboratory results as given in article PMC10685318, “Trans-cyclosulfamidate mannose-configured cyclitol allows isoform-dependent inhibition of GH47 α-D-mannosidases through a bump–hole strategy” (Chemical Science, 2023).

Biological target: T1, MAN2A2 (Homo sapiens, UniProt P49641)
T1 construct: expressed in transfected cells
T1 sequence (P49641 1-1150): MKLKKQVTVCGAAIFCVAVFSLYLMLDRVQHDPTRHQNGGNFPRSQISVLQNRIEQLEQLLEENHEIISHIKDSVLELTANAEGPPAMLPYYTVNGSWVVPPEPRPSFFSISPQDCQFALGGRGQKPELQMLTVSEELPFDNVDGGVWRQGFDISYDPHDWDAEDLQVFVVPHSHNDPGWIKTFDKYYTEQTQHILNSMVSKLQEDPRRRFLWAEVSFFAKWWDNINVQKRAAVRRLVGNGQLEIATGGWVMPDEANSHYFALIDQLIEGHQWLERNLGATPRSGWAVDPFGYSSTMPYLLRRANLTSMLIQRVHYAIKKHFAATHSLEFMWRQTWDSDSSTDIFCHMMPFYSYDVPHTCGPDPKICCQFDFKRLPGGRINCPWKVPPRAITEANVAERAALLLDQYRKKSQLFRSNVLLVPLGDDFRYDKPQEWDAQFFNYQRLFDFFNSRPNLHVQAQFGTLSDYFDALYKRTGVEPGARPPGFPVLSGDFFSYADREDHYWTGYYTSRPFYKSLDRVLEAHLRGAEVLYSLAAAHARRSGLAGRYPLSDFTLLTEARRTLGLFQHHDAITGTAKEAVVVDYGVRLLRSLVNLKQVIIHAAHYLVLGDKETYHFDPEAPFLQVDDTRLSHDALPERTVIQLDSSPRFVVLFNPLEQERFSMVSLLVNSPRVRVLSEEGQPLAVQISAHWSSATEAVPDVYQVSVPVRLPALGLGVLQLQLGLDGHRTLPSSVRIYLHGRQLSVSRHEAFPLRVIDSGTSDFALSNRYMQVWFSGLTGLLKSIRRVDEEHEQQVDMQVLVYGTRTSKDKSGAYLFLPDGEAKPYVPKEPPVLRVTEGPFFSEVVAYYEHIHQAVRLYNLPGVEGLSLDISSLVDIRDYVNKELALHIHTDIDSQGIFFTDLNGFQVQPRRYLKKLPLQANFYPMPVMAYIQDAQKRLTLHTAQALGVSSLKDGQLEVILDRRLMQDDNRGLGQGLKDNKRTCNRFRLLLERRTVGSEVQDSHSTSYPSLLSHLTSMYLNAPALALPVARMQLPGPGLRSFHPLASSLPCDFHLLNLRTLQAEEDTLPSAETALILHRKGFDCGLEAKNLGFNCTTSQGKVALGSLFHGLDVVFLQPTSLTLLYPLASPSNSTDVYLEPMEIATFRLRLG
Assay: 4-MU-α-man activity assay in overexpressed cell lysates
Assay type: biochemical
Source text: Finally, selectivity versus a panel of related exo-mannosidases was investigated. We first tested inhibition against all five human GH38 retaining α-mannosidases in overexpressed cell lysates using 4-methylumbelliferyl-α-mannoside (4-MU-α-man): Golgi mannosidase II and IIx (MAN2A1 and MAN2A2), cytosolic MAN2C1 and lysosomal MAN2B1 and MAN2B2. This α-mannosidase family follows a different conformational itinerary than GH47: ^0S2 → B2,5 → ^1S5.[35] […] Of note, the presence of cobalt has been associated with conformational changes in the active site of some GH38 α-mannosidases, which might affect the binding interaction with inhibitors.[36] Nevertheless, additional research is required to explore which specific metal ion is present in the MAN2C1 active site in its in vivo state.
Trans-Cyclosulfamidate Cyclitols Males et al.
2.3 GH38 α-mannosidases and GH2 β-mannosidase inhibition studies
All chemicals were of analytical grade and purchased from Sigma-Aldrich unless stated otherwise.
Optimal stability of cell homogenates and enzyme working stocks was ensured by preparation and temporary storage on ice. Cell homogenates were prepared and used on the same day. Protein concentrations were quantified using the Pierce BCA Protein Assay Kit (ThermoFisher). Protein samples were measured in clear flat-bottom polystyrene 96 well microplates (Greiner Bio-One) using a EMax Plus Microplate Reader (Molecular Devices). Activity measurements of human GH38 α-mannosidases and bacterial β-mannosidase BtMan2A were performed in black flat-bottom polystyrene 96 wells microplates (Greiner Bio-One) and total fluorescence was measured using a Perkin Elmer LS-55 fluorescence spectrometer at wavelengths λex = 366 and λem = 445 nm, with the signal optimized for medium gain readings. The fluorescence values of each enzyme sample were corrected for the background signal of a blank sample containing no enzyme. In the case of IC50 determinations, values were normalized against a control sample containing enzyme without added inhibitor. For a single experiment, three separate curves were fitted from a technical triplicate by setting the inhibitor concentration in µM against the normalized response using GraphPad Prism 8.4.2 software. The Prism functions ‘[inhibitor] versus normalized response’ and ‘[inhibitor] versus normalized response -- variable slope’ were compared for each curve using the Akaike’s Information Criterion method to select the preferred model. Reported IC50 values are mean ± standard deviation from a biological […]
General cell culture protocol
HEK293T cells were grown to confluency at 37 °C under a 5% CO2 atmosphere in Dulbecco’s Modified Eagle’s Medium (DMEM) with a high glucose concentration (Capricorn Scientific, DMEM-HPXA) that was supplemented with 10% fetal calf serum, 0.1% (w/v) penicillin/streptomycin and 1% (v/v) Glutamax. Cells were passaged twice a week to new round polystyrene (PS) tissue culture dishes (Sarstedt) by detachment off the former culture plates by careful pipetting. To prepare cell pellets for activity measurements, plates were grown to confluency and harvested in phosphate buffered saline (PBS). After centrifugation at 1500 rpm for 5 min, the remaining PBS was aspirated and the cells were resuspended in fresh PBS. The concentration of the resulting suspension was then counted using a TC20 automated cell counter (BioRad). Aliquots were centrifuged at 2000 rpm for 5 min and the resulting cell pellets were stored at -80 °C until further use.
4-MU activity assay protocol for human GH38 α-mannosidases
HEK293T cells stably overexpressing human GH38 α-mannosidases MAN2A1, MAN2A2, MAN2B1, MAN2B2 and MAN2C1 were prepared as previously described[11] and were kindly donated by Dr. C. L.
Kuo. Homogenates were prepared by sonicating cell pellets (Sonics VibraCell, 5x1 s with 30 s interval at 20% amplitude) in 150 mM McIlvain buffer of pH 5.5 (MAN2A1, MAN2A2), pH 4.5 (MAN2B1, MAN2B2) or pH 6.7 (MAN2C1) containing either 2 mM ZnCl2 (MAN2A1, MAN2A2, MAN2B1, MAN2B2) […]

In the case of `O=S1(=O)N[C@@H]2[C@@H](O)[C@@H](O)[C@H](O)[C@@H](CO)[C@H]2O1` [compound 6, 1,6-trans-manno-cyclosulfamidate], the “activity when the buffer was enriched with CoCl2” value (CoCl2) is reported as “no activity” and the IC50 (Zn2+) is reported as greater than 1000 µM.
